According to PMC12569736 (Journal of Cosmetic Dermatology, 2025):
One block for each compound: values may come before it.

Legend:
[1] = biological target: T1, human tyrosinase (hTYR) (Homo sapiens, UniProt P14679); test: L‐DOPA oxidation assay for tyrosinase activity (MNT‐1 cell lysate); format: biochemical; settings: for inhibitory effect on hTYR at maximum tested concentration: up to 33.3 μM; for IC50: MNT‐1 lysate, L‐DOPA 4 mM, pH 6.9, read-out: IC50 against hTYR; for inhibition at 0.4 µM: read-out: inhibitory activity against hTYR compared to the control
T1 construct: tyrosinase enzyme solution derived from MNT‐1 cells; endogenous in cells; host or cells: MNT-1 human melanoma cell line (crude lysate supernatant)
T1 sequence (P14679 19-529): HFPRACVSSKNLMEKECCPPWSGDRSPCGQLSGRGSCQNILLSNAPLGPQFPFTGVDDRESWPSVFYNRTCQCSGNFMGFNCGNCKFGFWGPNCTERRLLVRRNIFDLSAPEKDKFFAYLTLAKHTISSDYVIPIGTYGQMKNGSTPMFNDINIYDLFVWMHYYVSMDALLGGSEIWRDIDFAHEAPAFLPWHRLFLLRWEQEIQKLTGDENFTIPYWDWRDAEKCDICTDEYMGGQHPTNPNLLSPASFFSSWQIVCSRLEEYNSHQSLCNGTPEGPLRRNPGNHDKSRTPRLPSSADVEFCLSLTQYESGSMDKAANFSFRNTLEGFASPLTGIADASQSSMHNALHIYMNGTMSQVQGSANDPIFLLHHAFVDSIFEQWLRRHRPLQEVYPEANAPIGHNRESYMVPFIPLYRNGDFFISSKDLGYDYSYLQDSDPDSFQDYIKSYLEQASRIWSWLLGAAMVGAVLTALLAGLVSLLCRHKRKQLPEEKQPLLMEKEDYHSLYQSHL
Description: The hTYR‐mediated L‐DOPA oxidation assay was performed according to Winder and Harris. MNT‐1 cells were resuspended in 0.05 M sodium phosphate buffer (pH 6.9) and sonicated for 1 min. After incubation on ice for 3–5 min, the mixture underwent a second sonication. The lysate was centrifuged at 13 000 rpm for 15 min at 4°C, and the supernatant was collected and kept on ice.
For the assay, 20 μL of crude enzyme solution and 80 μL sodium phosphate buffer were added to a 96‐well plate and centrifuged at 1000 rpm for 30 s. Subsequently, 2 μL of different concentrations of test compounds were added to each well, followed by centrifugation at 1000 rpm for 30 s. Finally, 100 μL L‐DOPA (final concentration 4 mM) was added to initiate the reaction. The microplate reader (Synergy H1 Hybrid Reader, BioTek) was used to monitor the reaction at 26°C, measuring absorbance at 475 nm every minute for 60 min. IC50 values were calculated using GraphPad software based on Vmax values from the kinetic curves.
The L‐DOPA tyrosinase assay was performed using a tyrosinase enzyme solution derived from MNT‐1 cells in 50 mM sodium phosphate buffer (pH 6.9), with a substrate (L‐DOPA) concentration of 4 mM and various concentrations of inhibitors as indicated. Data represent mean ± standard deviation of three independent experiments.

[2] = test system: MNT‐1 cells; test: Melanin content in MNT‐1 cells after 6 days of treatment; format: cell-based, human; settings: for inhibition of melanin production: 0.37 μM; for inhibition of melanin production / inhibition at 1.1 µM / inhibition at 3.3 µM / inhibition at 10 µM: 6 days; for IC50 / inhibition at 1.1 µM / inhibition at 3.3 µM / inhibition at 10 µM: Homo sapiens; for IC50: 144 h, MNT‐1, 6 days, read-out: IC50 of melanin production; for inhibition at 1.1 µM / inhibition at 3.3 µM / inhibition at 10 µM: MNT-1, 144 h, read-out: inhibition of melanin production
Description: MNT‐1 cells were exposed to varying concentrations of test compounds for 6 days. After treatment, cells were harvested and lysed in RIPA buffer on ice for 20 min. Lysates were centrifuged at 13 000 rpm for 10 min at 4°C, and the supernatant was collected. Protein concentration was quantified using a BCA Protein Assay Kit (Thermo Fisher). To extract melanin, cell pellets were dissolved in 1 M NaOH and incubated for 3 h at 80°C. Absorbance at 405 nm was measured using a Synergy H1 Hybrid Reader. Melanin content was quantified by referencing a standard curve of synthetic melanin (maximum concentration 50 μg/mL, 2‐fold gradient dilution, 8 concentration points). Melanin content was normalized to protein concentration (μg melanin/mg protein), and IC50 values were calculated using GraphPad software.
FIGURE 3 Inhibition of melanin production in MNT‐1 by KT‐939, Thiamidol, and 4‐butylresorcinol. MNT‐1 cells were treated with different concentrations of KT‐939, Thiamidol, or 4‐butylresorcinol for 6 days. The melanin content was quantified based on the standard curve of melanin, and the melanin content per mg of protein was utilized for IC50 calculations with GraphPad software.

[3] = test system: NRF2/ARE signaling pathway; test: NRF2/ARE‐luciferase reporter assay in HEK293T cells; format: cell-based, human; settings: 10 µM, 48 h, relative to DMSO
Description: The NRF2‐responsive firefly luciferase reporter plasmid (pGL4.27_ARE NRF2‐SPE) and Renilla luciferase control plasmid (pRL‐TK) were co‐transfected into HEK293T cells using Lipofectamine 2000. After 24 h, transfected cells were seeded into 96‐well plates and incubated overnight. Test compounds (10 μM) were added, and cells were incubated for an additional 48 h. Luciferase activities were measured using the Dual‐Lumi Luciferase Reporter Assay Kit (Beyotime Biotechnology), following the manufacturer's instructions.
FIGURE 6 KT‐939 activates the ARE/NRF2 signaling pathway. HEK293T cells transfected with an NRF2‐responsive firefly luciferase reporter were treated with 10 µM of KT‐939, hydroquinone (Hq), 377, or 4‐butylresorcinol for 48 h. Luminescence signals were normalized to renilla and expressed relative to DMSO control. *** p < 0.001 vs DMSO.

[4] = test system: MelanoDerm skin model; design: method as in PMID 29427586; settings: cited from earlier work
[5] = biological target: hTYR enzyme; design: method as in PMID 29427586; settings: purified hTYR; read-out: IC50 against the hTYR enzyme; cited from earlier work
[6] = test system: melasma; design: method as in PMID 34676600; settings: moderate‐to‐severe melasma, 24 weeks of application, cited from earlier work

inhibitory effect on hTYR at maximum tested concentration [1]: no significant inhibitory effects
Compound: OC[C@H]1O[C@@H](Oc2ccc(O)cc2)[C@H](O)[C@@H](O)[C@@H]1O [arbutin]

IC50 [1]: 6.04 µM | inhibition at 0.4 µM ([1]; at 0.4 μM): 13.4%
Compound: Oc1ccc(/C=C/c2cc(O)cc(O)c2)cc1 [resveratrol]

IC50 [2]: 8 µM | IC50 [1]: 7.09 µM | inhibition at 0.4 µM ([1]; at 0.4 μM): 9.7%
Compound: CCCCc1ccc(O)cc1O [4‐butylresorcinol]
inhibition of melanin production [2]: neither Thiamidol nor 4‐butylresorcinol showed inhibitory activity | inhibition at 1.1 µM [2]: 15.8% | inhibition at 3.3 µM [2]: 32.6% | inhibition at 10 µM [2]: 48.4% | NRF2 signaling pathway activation (luciferase reporter) [3]: no effect on NRF2 activation

inhibitory effect on hTYR at maximum tested concentration [1]: no significant inhibitory effects
Compound: NC(=O)c1cccnc1 [nicotinamide]

IC50 [2]: 1.3 µM | IC50 [1]: 0.33 µM | inhibition at 0.4 µM ([1]; at 0.4 μM): 53.5%
Compound: CC(C)C(=O)Nc1nc(-c2ccc(O)cc2O)cs1 [Thiamidol, isobutylamido thiazolyl resorcinol]
inhibition of melanin production [2]: neither Thiamidol nor 4‐butylresorcinol showed inhibitory activity | inhibition at 1.1 µM [2]: 27.2% | inhibition at 3.3 µM [2]: 62.2% | inhibition at 10 µM [2]: 76.5% | IC50 [4]: 0.9 µM | IC50 [5]: 1.1 µM | tolerability [6]: favorable tolerability | melasma severity compared to baseline and vehicle ([6]; Fitzpatrick phototypes III–V): significantly reduced melasma severity

inhibitory effect on hTYR at maximum tested concentration [1]: no significant inhibitory effects
Compound: Oc1ccc(O)cc1 [hydroquinone]
NRF2 signaling pathway activation (luciferase reporter) [3]: no effect on NRF2 activation

inhibitory effect on hTYR at maximum tested concentration [1]: no significant inhibitory effects
Compound: CC1(C)C=Cc2c(ccc3c2OC[C@@H](c2ccc(O)cc2O)C3)O1 [glabridin]

IC50 [1]: 21.3 µM | inhibitory activity against hTYR compared to the control ([1]; at 0.4 μM): 2.7%
Compound: CC(c1ccccc1)c1ccc(O)cc1O (centres unmarked) [compound 377, phenethyl resorcinol]
NRF2 signaling pathway activation (luciferase reporter) [3]: no effect on NRF2 activation
